In data set [1] the test system is Vibrio campbellii BAA 1118 (AI-1). The data set is described as follows: Viability of the quorum-sensing reporter culture (resazurin assay), AI-1 strain. In kind it is cell-based. To be noted: BAA1118, V. campbellii BAA 1118, resazurin assay, read-out: IC50 (concentration that halved the viability). The method in brief:
(§1)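 Mutant V. campbellii strains responding only to AI-1 (BAA-1118) or AI-2 (BAA-1119), seeded at 5 × 10^5 CFU/mL in Autoinducer Bioassay medium (potassium phosphate pH 7.0); compounds at final 0.2–200 µM.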
(Resazurin is reduced to fluorescent resorufin, in cell work by metabolically active cells.)

The test system of data set [2] is Vibrio campbellii BAA 1119 (AI-2). Nature of the data set: Viability of the quorum-sensing reporter culture (resazurin assay), AI-2 strain. The data set is classed as cell-based. To be noted: BAA1119, V. campbellii BAA 1119, resazurin assay, read-out: IC50 (concentration that halved the viability). The method in brief: as §1
Data set [3] concerns P. aeruginosa (CCM, 3955). Nature of the data set: Inhibition of biofilm formation (surface colonization). In kind it is cell-based. To be noted: Pseudomonas aeruginosa; highest tested concentration 100 µM. The procedure:
Biofilm formation is a fully organized, multistep process in which bacteria are constantly communicating with each other.
The activity of derivatives on biofilms was tested with S. aureus (ATCC, 25923) and P. aeruginosa (CCM, 3955), according to the previously described method. The highest tested concentration of derivatives was 100 µM. The activity was evaluated using an IC50 comparison between the parent compound and its derivative.

Data set [4] can be described thus: ABTS cation radical scavenging. To be noted: vitamin C equivalent antioxidant capacity. The method in brief:
(§2)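 ABTS and DPPH radical scavenging gauged antiradical activity. Reducing capacity was measured as reduction of Folin–Ciocalteu reagent and of ferric ions (FRAP).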

The nature of data set [5]: Ferric reducing antioxidant power (FRAP). To be noted: Fe2+ equivalents. The method in brief:
as §2

In data set [6] the test system is doxorubicin-resistant human ovarian carcinoma (HOC/DOX). Nature of the data set: Cytotoxicity (resazurin assay, 72 h). To be noted: for IC50: Homo sapiens, 72 h, resazurin assay; for SI (selectivity index): ratio IC50 for HDF / IC50 for HOC/DOX. In kind it is cell-based. The method in brief:
(§3)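 HDF and HOC/DOX cells in DMEM with 10% FBS were treated 24 h after seeding with 31.25–500 µM compound for 72 h at 37 °C. Viability was read by resazurin fluorescence (560/590 nm) after 2 h; IC50 came from nonlinear regression, and selectivity index = IC50(HDF)/IC50(HOC/DOX).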

The subject of data set [7] is human dermal fibroblasts (HDF). The data set is described as follows: Cytotoxicity (resazurin assay, 72 h). In kind it is cell-based. To be noted: Fibroblast. The method in brief:
as §3

Data set [8] concerns murine macrophages (RAW 264.7). The data set is described as follows: Cell viability in the nitric oxide assay (resazurin assay). In kind it is cell-based. To be noted: RAW 264.7, nitric oxide assay. The procedure:
The anti-inflammatory activity of the tested flavonolignans was determined as the ability to reduce nitric oxide production by murine macrophages (RAW 264.7) stimulated by bacterial lipopolysaccharides, as previously described. […] For the experiment, 1 × 10^6 cells/mL was seeded into the 96-well plate (100 µL/well). […] After 24 h, the medium was mixed with Griess reagent (0.04 g/mL), prepared freshly in deionized water at the ratio of 1:1. The absorbance was measured after 15 min at 540 nm by the SpectraMax i3x microplate reader. Cell viability was determined by resazurin assay.

Each structure is given as a SMILES string.

Regarding `COc1cc([C@H]2Oc3cc([C@H]4Oc5cc(O)cc(O)c5C(=O)[C@@H]4O)ccc3O[C@@H]2CO)ccc1O` [3a, silybin A, reference compound], the IC50 stood at 131 ± 3.7 µM in data set [1]; 120 ± 3.1 µM in data set [2]; 77 µM in data set [3]; 236 µM in data set [6]; 109 µM in data set [7]. For the same molecule, the “ABTS [CEAC]” value in data set [4] came to 0.50 ± 0.03 CEAC. Besides, the “FRAP [Fe2+eq]” value in data set [5] came to 0.071 ± 0.003 Fe2+eq. The “SI (selectivity index)” value in data set [6] was 0.46.
For `COc1cc([C@@H]2Oc3cc([C@H]4Oc5cc(O)cc(O)c5C(=O)[C@@H]4O)ccc3O[C@H]2CO)ccc1O` [3b, silybin B, reference compound], the IC50 in data set [1] was 116.6 ± 0.9 µM; in data set [2], 152 ± 2.4 µM; in data set [3] it was 105 µM; in data set [6], 202 µM; in data set [7], 83.3 ± 5.4 µM. In addition, the “ABTS [CEAC]” value in data set [4] amounted to 0.55 ± 0.05 CEAC. Further, in data set [5], the “FRAP [Fe2+eq]” value worked out at 0.078 ± 0.004 Fe2+eq. The “SI (selectivity index)” value in data set [6] is recorded as 0.41.
As to `COc1cc([C@@H]2Oc3c(O)cc([C@H]4Oc5cc(O)cc(O)c5C(=O)[C@@H]4O)cc3[C@H]2CO)ccc1O` [compound 5, silychristin A, reference compound], the IC50 in data set [1] is greater than 200 µM; in data set [2] it was greater than 200 µM; in data set [3], 73 µM; in data set [6], 205 µM; in data set [7] it was 115 µM. Also, in data set [4], the “ABTS [CEAC]” value was 1.73 ± 0.02 CEAC. Moreover, the “FRAP [Fe2+eq]” value in data set [5] is given as 0.25 ± 0.02 Fe2+eq. Besides, in data set [6], the “SI (selectivity index)” value came to 0.56.
For the molecule `COc1cc(C2Oc3cc(-c4oc5c(Br)c(O)cc(O)c5c(=O)c4O)ccc3OC2CO)ccc1O` (centres unmarked) [compound 16, 8-bromo-2,3-dehydrosilybin AB], the IC50 in data set [1] is greater than 200 µM; in data set [2], 87 ± 2.5 µM; in data set [6], 39.4 ± 3.4 µM; in data set [7], 16.9 ± 0.6 µM. The “ABTS [CEAC]” value in data set [4] worked out at 1.15 ± 0.03 CEAC. In addition, the “FRAP [Fe2+eq]” value in data set [5] worked out at 0.19 ± 0.01 Fe2+eq. For the same molecule, in data set [6], the “SI (selectivity index)” value came to 0.43. The “Concentration above which the cell viability decreased” value in data set [8] was greater than 25 µM.

These data come from publication PMC9738062, “Selectively Halogenated Flavonolignans—Preparation and Antibacterial Activity” (International Journal of Molecular Sciences, 2022).
